Results as given in patent US9096615B2, “Bridged bicyclic amino thiazine dioxide compounds as inhibitors of beta-secretase and methods of use thereof” (AMGEN INC., priority 2013, dated 2015).
Read-outs that look alike come from different tables or passages of the source.

Key:
BACE1 = BACE1 (Homo sapiens, UniProt P56817); experiment: In vitro enzymatic BACE FRET assay; format: biochemical
Method in brief: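 BACE (0.2 nM) pre-incubated 1 h with serially diluted inhibitor in 0.05 M acetate pH 4.2, 10% DMSO, 100 uM genapol; 50 nM FRET peptide substrate added, 1 h incubation. Stopped with Tris to neutral pH; fluorescence read (ex 488, […]).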

[1] = test system: Aβ40 in conditioned medium of cells stably expressing Amyloid Precursor Protein (APP); experiment: In vitro BACE cell-based assay (HEK cell assay, Aβ40 sandwich ELISA); conditions: Homo sapiens, HEK293
Method in brief: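 APP-stable cells were cultured 24 h at 37 °C, then given compound as 10-point dose-response (top 100 μM or 10 μM; 0.1% DMSO final) for 24 h. Aβ40 in conditioned medium was measured by sandwich ELISA (pAb40 capture, biotinylated 6E10 detection, Eu time-resolved fluorescence). IC50 from percent inhibition versus concentration.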

human Bace2 protein = biological target: T1, human Bace2 protein (Homo sapiens, UniProt Q9Y5Z0); experiment: In vitro enzymatic BACE2 FRET assay; format: biochemical; conditions: average IC50; read-out: BACE2 Enzyme assay IC50
T1 construct: V5 (C); 6-His (C)
T1 sequence (Q9Y5Z0 63-518): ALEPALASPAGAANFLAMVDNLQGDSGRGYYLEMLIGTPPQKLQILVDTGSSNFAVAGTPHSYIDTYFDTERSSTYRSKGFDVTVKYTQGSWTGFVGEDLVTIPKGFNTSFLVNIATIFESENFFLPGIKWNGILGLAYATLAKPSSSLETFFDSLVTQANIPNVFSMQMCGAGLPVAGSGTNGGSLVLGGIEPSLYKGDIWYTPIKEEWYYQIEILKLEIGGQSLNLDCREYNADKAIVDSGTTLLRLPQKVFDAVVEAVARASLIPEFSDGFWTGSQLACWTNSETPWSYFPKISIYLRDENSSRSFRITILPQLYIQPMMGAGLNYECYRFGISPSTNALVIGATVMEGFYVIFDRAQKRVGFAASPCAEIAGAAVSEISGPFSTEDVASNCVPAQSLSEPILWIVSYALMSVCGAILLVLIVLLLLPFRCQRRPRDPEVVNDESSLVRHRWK
Description: In Vitro Enzymatic BACE2 FRET (Fluorescence Resonance Energy Transfer) Assay
Enzyme Assay Data in the Table 3
The assay buffer used in this screen is 0.05 M acetate, pH 4.2, 10% DMSO final, 100 uM genapol (which is a nonionic detergent, below its Critical Micelle Concentration). The Beta Secretase2 enzyme (human Bace2 protein with C-terminal V5 and 6-His tag; 0.2 nM) is pre-incubated for one hour with inhibitors, typically in about 1 uL of DMSO according to a serial dilution, are added thereto. This assay is effectively started by the addition of FRET substrate (50 nM) and the combination is incubated for one hour. Final assay concentration of about 0.64 nM. The FRET assay is terminated with by addition of Tris buffer, which raises the pH to neutrality, and the fluorescence is determined. The FRET substrate is a peptide with commercially available fluorophore and quencher, on opposite sides of the BACE cleavage site. Proteolytic cleavage of the FRET substrate releases quenching of fluorescence (excitation 488 nm and […]).

Cathepsin D (Cat D) = biological target: T2, Cathepsin D (Cat D) (Homo sapiens, UniProt P07339); experiment: In vitro enzymatic Cathepsin D (Cat D) FRET assay; format: biochemical; conditions: read-out: CatD IC50
T2 construct: made in house; host or cells: CHO cells
T2 sequence (P07339 65-412, species assumed): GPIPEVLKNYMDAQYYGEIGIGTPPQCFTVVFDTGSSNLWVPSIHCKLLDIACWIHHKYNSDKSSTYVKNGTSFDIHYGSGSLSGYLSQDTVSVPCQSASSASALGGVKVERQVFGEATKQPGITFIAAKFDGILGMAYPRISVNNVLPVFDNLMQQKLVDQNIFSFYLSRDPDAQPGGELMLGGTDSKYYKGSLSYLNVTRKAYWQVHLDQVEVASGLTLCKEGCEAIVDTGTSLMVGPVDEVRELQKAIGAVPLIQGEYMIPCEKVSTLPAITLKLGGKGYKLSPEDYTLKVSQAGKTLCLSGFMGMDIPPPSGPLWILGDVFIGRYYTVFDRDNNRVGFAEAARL
Method in brief: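 Recombinant human Cat D expressed in CHO cells, 9 nM, pre-incubated 1 h with inhibitor in 0.05 M citrate pH 3.5, 10% DMSO, 5 mM CHAPS. Reaction started with 20 nM FRET peptide substrate, run 1 h, stopped with Tris to neutral pH; fluorescence read at ex 500/em 580 nm.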

Abeta 40 = experiment: In vivo inhibition of beta-secretase: percent Abeta 40 reduction in CSF and brain; parameters: species or system rat; conditions: 10 mpk, after 4 hrs
From the text: In Vivo Inhibition of Beta-Secretase
Several animal models, including mouse, rat, dog, and monkey, may be used to screen for inhibition of beta-secretase activity in vivo following administration of a test compound sample. Animals used in this invention can be wild type, transgenic, or gene knockout animals. For example, the Tg2576 mouse model, prepared and conducted as described in Hsiao et al., 1996, Science 274, 99-102, and other non-transgenic or gene knockout animals are useful to analyze in vivo inhibition of Amyloid beta peptide (Abeta) production in the presence of inhibitory test compounds. Generally, 2 to 18 month old Tg2576 mice, gene knockout mice or non-transgenic animals are administered test compounds formulated in vehicles, such as cyclodextran, phosphate buffers, hydroxypropyl methylcellulose or other suitable vehicles. One to twenty-four hours following the administration of compound, animals are sacrificed, and brains as well as cerebrospinal fluid (CSF) and plasma are removed for analysis of A-beta levels and drug or test compound concentrations (Dovey et al., 2001, Journal of Neurochemistry, 76, 173-181) Beginning at time 0, animals are administered by oral gavage, or other means of delivery such as intravenous injection, an inhibitory test compound of up to 100 mg/kg in a standard, conventional formulation, such as 2% hydroxypropyl methylcellulose, 1% Tween80. A separate group of animals receive 2% hydroxypropyl methylcellulose, 1% Tween80 alone, containing no test compound, and serve as a vehicle-control group. At the end of the test period, animals are sacrificed and brain tissues, plasma or cerebrospinal fluid are collected. Brains are either homogenized in 10 volumes (w/v) of 0.2% diethylamine (DEA) in 50 mM NaCl (Best et al., 2005, Journal of Pharmacology and Experimental Therapeutics, 313, 902-908), or in 10 volumes of 0.5% TritonX-100 in Tris-buffered saline (pH at about 7.6). Homogenates are centrifuged at 355,000 g, 4° C. for 30 minutes. CSF or brain supernatants are then analyzed for the presence of A-beta peptide by specific sandwich ELISA assays based on ECL (Electrochemiluminescence) technology. For example, rat Abeta40 is measured using biotinylated-4G8 (Signet) as a capture antibody and Fab40 (an in-house antibody specific to the C-terminal of Abeta40) as a detection antibody. For example, 4 hours after administration of 30 mg/kg oral dose of the test compound in 2% hydroxypropyl methylcellulose, 1% Tween80 (pH2.2) to 200 g male Sprague Dawley rats, amyloid beta peptide levels are measured for reduction by X % and Y % in cerebrospinal fluid and brain, respectively, when compared to the levels measured in the vehicle-treated or control […].
Actual vehicles used: Oral: 2% HPMC, 1% Tween80, pH 2.2
• IV: 5% EtOH, 45% Propylene glycol in 5% Dextrose
The compounds of the invention may be shown to reduce the formation and/or deposition of amyloid beta peptide in the cerebrospinal fluid (CSF) as well as in the brain of a mouse or rat at either 3 mpk, 10 mpk or 30 mpk (mpk=mg compound per kg weight of the animal) dosing concentrations after 4 hrs.

[2] = average IC50, read-out: BACE1 Enzyme assay IC50
[3] = average IC50, read-out: BACE1 cell assay IC50
[4] = Abeta 40, rat CSF, read-out: % reduction of rat CSF levels at 10 pmk
[5] = Abeta 40, rat brain, read-out: % reduction of rat brain levels at 10 mpk

Chain of BACE1 (P56817 46-501, species assumed): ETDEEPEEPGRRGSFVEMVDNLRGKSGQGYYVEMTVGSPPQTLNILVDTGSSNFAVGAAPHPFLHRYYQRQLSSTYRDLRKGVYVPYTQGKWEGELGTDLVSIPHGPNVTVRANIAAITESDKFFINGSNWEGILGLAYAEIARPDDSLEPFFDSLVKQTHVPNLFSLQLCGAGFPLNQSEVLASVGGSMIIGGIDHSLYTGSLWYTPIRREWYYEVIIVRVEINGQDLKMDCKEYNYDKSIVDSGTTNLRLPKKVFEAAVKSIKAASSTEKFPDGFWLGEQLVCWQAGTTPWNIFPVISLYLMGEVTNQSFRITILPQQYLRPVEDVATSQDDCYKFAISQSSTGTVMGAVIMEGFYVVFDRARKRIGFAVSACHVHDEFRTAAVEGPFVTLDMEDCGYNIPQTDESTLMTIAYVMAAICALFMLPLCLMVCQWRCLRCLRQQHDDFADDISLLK

IC50 (BACE1; [2]) | IC50 [1, 3] | IC50 (human Bace2 protein) | IC50 (Cathepsin D (Cat D); average IC50, first procedure) | IC50 (BACE1; read-out: BACE1 FRET assay IC50) | IC50 ([1]; Aβ40, 24 h incubation, read-out: HEK cell assay IC50) | IC50 (Cathepsin D (Cat D)) | SMILES | inhibition in vivo at 10 mg/kg (Abeta 40; [4]) | inhibition in vivo at 10 mg/kg (Abeta 40; [5])
0.003 µM | 0.002 µM | 0.065 µM | 1980 µM | – | – | – | COCCOc1cnc2c(Nc3ccc(F)c([C@@]4(C)N=C(N)[C@@]5(C)CC[C@@H]4S5(=O)=O)c3)nccc2n1 [Example 145, N-(3-((1S,2R,5R)-4-amino-2,5-dimethyl-8,8-dioxido-8-thia-3-azabicyclo[3.2.1]oct-3-en-2-yl)-4-fluorophenyl)-2-(2-methoxyethoxy)pyrido[3,4-b]pyrazin-5-amine] | – | –
0.009 µM | 0.007 µM | 0.014 µM | > 400 µM | – | – | – | COc1cnc(C(=O)Nc2ccc(F)c([C@@]3(C)N=C(N)[C@@]4(CF)CC[C@@H]3S4(=O)=O)c2)c(F)c1 [Example 43, N-(3-((1S,2R,5R)-4-amino-5-(fluoromethyl)-2-methyl-8,8-dioxido-8-thia-3-azabicyclo[3.2.1]oct-3-en-2-yl)-4-fluorophenyl)-3-fluoro-5-methoxy-2-pyridinecarboxamide] | – | –
0.001 µM | 0.008 µM | 0.01 µM | 953 µM | – | – | – | C#CCOc1cnc(C(=O)Nc2ccc(F)c([C@@]3(C)N=C(N)[C@@]4(CF)CC[C@@H]3S4(=O)=O)c2)c(Cl)c1 [Example 60, N-(3-((1S,2R,5R)-4-amino-5-(fluoromethyl)-2-methyl-8,8-dioxido-8-thia-3-azabicyclo[3.2.1]oct-3-en-2-yl)-4-fluorophenyl)-3-chloro-5-(2-propyn-1-yloxy)-2-pyridinecarboxamide] | – | –
0.001 µM | 0.001 µM | – | 417 µM | – | – | – | Cc1cnc(COc2cnc3c(Nc4ccc(F)c([C@@]5(C)N=C(N)[C@@]6(C)CC[C@@H]5S6(=O)=O)c4)nccc3n2)o1 [Example 146, N-(3-((1S,2R,5R)-4-amino-2,5-dimethyl-8,8-dioxido-8-thia-3-azabicyclo[3.2.1]oct-3-en-2-yl)-4-fluorophenyl)-2-((5-methyl-1,3-oxazol-2-yl)methoxy)pyrido[3,4-b]pyrazin-5-amine] | 35% | 13%

The next lines start with the compound.

SMILES | IC50 (BACE1; [2]) | IC50 [1, 3] | IC50 (human Bace2 protein) | IC50 (Cathepsin D (Cat D); average IC50, first procedure) | IC50 (BACE1; read-out: BACE1 FRET assay IC50) | IC50 ([1]; Aβ40, 24 h incubation, read-out: HEK cell assay IC50) | IC50 (Cathepsin D (Cat D)) | inhibition in vivo at 10 mg/kg (Abeta 40; [4]) | inhibition in vivo at 10 mg/kg (Abeta 40; [5])
C[C@]1(c2cc(Nc3nccc4nc(OCC(F)(F)F)cnc34)ccc2F)N=C(N)[C@@]2(CF)CC[C@@H]1S2(=O)=O [Example 112, N-(3-((1S,2R,5R)-4-amino-5-(fluoromethyl)-2-methyl-8,8-dioxido-8-thia-3-azabicyclo[3.2.1]oct-3-en-2-yl)-4-fluorophenyl)-2-(2,2,2-trifluoroethoxy)pyrido[3,4-b]pyrazin-5-amine] | 0.008 µM | 0.188 µM | 0.058 µM | 1310 µM | – | – | – | – | –
C[C@]1(c2cc(Nc3nccc4cc(Cl)cnc34)ccc2F)N=C(N)[C@@]2(CF)CC[C@@H]1S2(=O)=O [Example 58, N-(3-((1S,2R,5R)-4-amino-5-(fluoromethyl)-2-methyl-8,8-dioxido-8-thia-3-azabicyclo[3.2.1]oct-3-en-2-yl)-4-fluorophenyl)-3-chloro-1,7-naphthyridin-8-amine] | 0.001 µM | 0.046 µM | 0.002 µM | 342 µM | – | – | – | – | –
CC(C)(C)C#CCOc1cnc(C(=O)Nc2ccc(F)c([C@@]3(C)N=C(N)C4(CF)CCC3S4(=O)=O)c2)cn1 (stereo in doubt) [Example 38, N-(3-((1S,2R,5R)-4-Amino-5-(fluoromethyl)-2-methyl-8,8-dioxido-8-thia-3-azabicyclo[3.2.1]oct-3-en-2-yl)-4-fluorophenyl)-5-((4,4-dimethylpent-2-yn-1-yl)oxy)pyrazine-2-carboxamide] | 0.004 µM | 0.031 µM | 0.011 µM | 437 µM | – | – | – | – | –
Cc1cc(C(F)(F)F)cnc1C(=O)Nc1ccc(F)c([C@@]2(C)N=C(N)[C@@]3(CF)CC[C@@H]2S3(=O)=O)c1 [Example 92, N-(3-((1S,2R,5R)-4-amino-5-(fluoromethyl)-2-methyl-8,8-dioxido-8-thia-3-azabicyclo[3.2.1]oct-3-en-2-yl)-4-fluorophenyl)-3-methyl-5-(trifluoromethyl)-2-pyridinecarboxamide] | 0.004 µM | 0.005 µM | – | 789 µM | – | – | – | 73% | 67%
C[C@]1(c2cc(Nc3ncnc4cc(Cl)cnc34)ccc2F)N=C(N)[C@@]2(CF)CC[C@@H]1S2(=O)=O [Example 98, N-(3-((1S,2R,5R)-4-amino-5-(fluoromethyl)-2-methyl-8,8-dioxido-8-thia-3-azabicyclo[3.2.1]oct-3-en-2-yl)-4-fluorophenyl)-7-chloropyrido[3,2-d]pyrimidin-4-amine] | 0.005 µM | 0.015 µM | – | 286 µM | – | – | – | 70% | 74%
C[C@]1(c2cc(N)ccc2F)N=C(N)[C@@]2(C)CC[C@@H]1S2(=O)=O [Example 35, (1R,4R,5S)-4-(5-amino-2-fluorophenyl)-1,4-dimethyl-8-thia-3-azabicyclo[3.2.1]oct-2-en-2-amine 8,8-dioxide] | – | – | – | – | 10.1 µM | 5.81 µM | 287 µM | 52% | 46%
